Measured values as given in paper PMC10058583, “Development of Novel Fluorinated Polyphenols as Selective Inhibitors of DYRK1A/B Kinase for Treatment of Neuroinflammatory Diseases including Parkinson’s Disease” (Pharmaceuticals, 2023).
pIC50: −log10 of the molar value. Read-outs that look alike come from different tables or passages of the source.

How the values were obtained:
[1] = target: T1, human DYRK2 isoform 1 (6xHis-tagged) (Homo sapiens, UniProt Q92630); assay: ELISA-based non-radioactive kinase assay, DYRK2; assay type: biochemical
T1 sequence (Q92630 74-601 limits assumed): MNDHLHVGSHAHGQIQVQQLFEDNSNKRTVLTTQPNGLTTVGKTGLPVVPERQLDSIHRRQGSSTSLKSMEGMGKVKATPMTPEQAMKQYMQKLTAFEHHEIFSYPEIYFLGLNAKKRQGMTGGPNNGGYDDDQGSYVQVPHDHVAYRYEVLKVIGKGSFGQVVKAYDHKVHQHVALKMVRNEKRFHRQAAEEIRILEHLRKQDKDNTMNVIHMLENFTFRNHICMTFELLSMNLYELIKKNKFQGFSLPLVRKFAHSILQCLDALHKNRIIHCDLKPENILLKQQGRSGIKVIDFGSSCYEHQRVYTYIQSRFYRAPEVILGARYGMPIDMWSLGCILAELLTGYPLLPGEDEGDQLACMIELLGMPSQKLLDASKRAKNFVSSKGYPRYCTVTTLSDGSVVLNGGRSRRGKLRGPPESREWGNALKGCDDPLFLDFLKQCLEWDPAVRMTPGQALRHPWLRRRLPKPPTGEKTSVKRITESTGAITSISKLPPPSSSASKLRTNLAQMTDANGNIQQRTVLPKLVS
Description: (§1) DYRK1B was prepared from human DYRK1B isoform p65 as glutathione S-transferase fusion protein, and DYRK2 was prepared from human DYRK2 isoform 1 as 6xHis-tagged protein, as previously described.
(§2) For DYRK2, the reactions were performed exactly as described for DYRK1A. For DYRK1B, the assays were similarly conducted but with 30 ng GST-DYRK1B and a kinase reaction time of 60 min.

[2] = target: T2, 6xHis-tagged rat-truncated DYRK1A (residues 1-497) (Rattus norvegicus, UniProt Q63470); assay: ELISA-based non-radioactive kinase assay, DYRK1A; assay type: biochemical
T2 construct: 6xHis-tagged rat-truncated DYRK1A (residues 1-497); 6xHis; made in house

DYRK1A = conditions: cited from earlier work
DYRK1B = conditions: read-out: published IC50 DYRK1B; cited from earlier work
DYRK2 = conditions: read-out: published IC50 DYRK2; cited from earlier work
[3] = target: T3, human DYRK1B isoform p65 (GST fusion) (Homo sapiens, UniProt Q9Y463); assay: ELISA-based non-radioactive kinase assay, DYRK1B; assay type: biochemical; conditions: 30 ng GST-DYRK1B, 60 min reaction
T3 construct: made in house
Description: as §1, §2

[4] = Pharmacokinetic studies in C57BL/6 mice (plasma and tissues); assay type: in vivo, mouse; conditions: PO (100 mg/kg)
Description: To overcome the generally poor PK profile of catechins, we developed a proprietary formulation that allows for the delivery of these drugs in high concentrations for oral (PO) or intranasal (IN) use. Our liquid formulation is based on the solubilizer and penetration enhancer (2-hydroxypropyl)-β-cyclodextrin (HP-β-CD), PEG-400, and water. This vehicle allows us to achieve high drug concentration in dosing solution (up to 20% w/w) when needed. PK studies were conducted for 1c in adult male and female C57BL/6 mice (n = 3/sex/time point) using (1) a single IV dose (5 mg/kg), (2) an IN dose (60 mg/kg, 5 µL of a clear solution/nostril/twice), and (3) a single PO dose (100 mg/kg). We analyzed the concentration of the drug in several tissues, including the brain, lungs, liver, and plasma. We observed that this class of molecules is stable in circulation; however, when the tissues are harvested for bioanalytical work, the drug undergoes rapid degradation, probably because of the direct contact with oxygen and metals, which catalyzes its rapid degradation/oxidation. We were able to stabilize the drug in blood by the immediate addition of ascorbic acid and TCEP [29]; however, the same was not possible with solid organs such as the brain and liver, which need to be collected through surgery and homogenized before any stabilizing agent can be added. Therefore, tissue PK data tend to vary.
C57BL/6J mice were given a single dose of drug via the IN or PO route. […] For PO delivery, we replaced water with saline. The volume for IN delivery was 5 µL/nostril, and the volume used for oral delivery was 10 mL/kg. After sacrifice, blood (500 µL) was collected into K2EDTA microtubes and kept on ice all times (must be centrifuged within 30 min of collection). Blood was centrifuged in EDTA vacuum at 4 °C at 15,000× g for 4 min; ~250 µL of plasma was collected into polyethylene tubes containing 50 µL of AA/TCEP stabilizing solution (20 mM ascorbic acid and 13 mM TCEP in 50 mM K2HPO4 buffer; the pH of the solution was adjusted to 6.5 using 2 M NaOH). Then, 200 µL of the collected plasma was mixed with (1) 24 µL of a solution of 10% ascorbic acid and 0.1% EDTA in 40 mM NaH2PO4; (2) 40 µL of 50 mM sodium phosphate (pH 7.4); (3) 500 units of β-D-glucuronidase type X-A from Escherichia coli (Sigma Chemical Co, St Louis, MO, USA), and (4) 4 units of sulfatase type VIII from abalone entrails (Sigma Chemical Co). The mixture was incubated at 37 °C for 45 min. Plasma was then extracted by the addition of 0.5 mL ACN; the mixture was vortex-mixed for 2 min, then snap-frozen with isopropanol/carbon dioxide dry ice, and the upper layer of ACN was removed. The process was repeated another 2 times. The ACN fractions were pooled into a polyethylene tube kept on ice. The combined fractions were evaporated under a gentle stream of nitrogen at ambient temperature. The residue obtained after evaporation was reconstituted in 200 µL of 75 mM citric acid//25 mM ammonium acetate: ACN (75:25 by vol), and vortexed vigorously for 5 min, and 20 µL of the resulting solution was injected into the LC-MS/MS column.
Drug analysis in tissues: About ~0.4 g of the tissue was homogenized with 1 mL of ice-cold 0.4 M sodium phosphate buffer containing 6 mg of ascorbic acid and 0.5 mg of Na2EDTA (final pH of 6.5). After centrifugation at 4 °C at 15,000× g for 4 min, the supernatant was collected into polyethylene tubes containing 50 µL of the AA/TCEP stabilizing solution. Then 1 U of sulfatase and 250 U of β-glucuronidase were added to the abovementioned homogenized mixture. Samples were incubated at 37 °C for 45 min, then extracted, dried, and resuspended in a manner similar to that for plasma. Samples were then analyzed by LC-MS/MS.

[5] = tested on: LPS-induced inflammation in C57BL/6J mice; assay: LPS-induced inflammation model; assay type: in vivo, mouse; conditions: positive control 1 mg/kg PO, LPS i.p. 750 µg/kg
Description: Neuroinflammation is an important factor contributing to cognitive impairment and neurodegenerative diseases such as PD, and the administration of LPS is frequently used to study neuroinflammation-associated diseases in mice.
Each group consisted of six male mice. […] Animals were pretreated for 3 days with the drug of choice; then, treatment with LPS commenced on day 0, and on the 5th day of LPS treatment, the drug was administered half an hour before LPS injection. One hour after LPS treatment, the animals were anesthetized with a mixture of ketamine, xylazine 2%, atropine, and saline (4:2.5:1:2.5). The body temperature of mice under anesthesia was maintained by applying a heating blanket and monitored using a rectal thermometer. After anesthesia, the animals underwent cardiac perfusion with ice-cold saline for three minutes (3 mL/minute via peristaltic pump) via the left ventricle. The right atrium was cut as an outflow route. The right hemisphere was post-fixed overnight in 4% PFA in PBS at 4 °C and stored in 1xPBS containing 0.1% (v/w) sodium azide at 4 °C. The left hemisphere, hippocampus, cortex, midbrain, and brainstem were microdissected, immersed in liquid nitrogen in separate tubes (with one-fifth of the rest of the brain tissue), and stored in microfuge tubes at −80°. TNFα (in both plasma and the hippocampus) was analyzed with ELISA, and the p-tau (AT-8 antibody) level was recorded in the hippocampus and cortex with WB.

[6] = both sexes, C57BL/6, mouse, plasma

T3 sequence (Q9Y463 1-589 isoform Q9Y463-2): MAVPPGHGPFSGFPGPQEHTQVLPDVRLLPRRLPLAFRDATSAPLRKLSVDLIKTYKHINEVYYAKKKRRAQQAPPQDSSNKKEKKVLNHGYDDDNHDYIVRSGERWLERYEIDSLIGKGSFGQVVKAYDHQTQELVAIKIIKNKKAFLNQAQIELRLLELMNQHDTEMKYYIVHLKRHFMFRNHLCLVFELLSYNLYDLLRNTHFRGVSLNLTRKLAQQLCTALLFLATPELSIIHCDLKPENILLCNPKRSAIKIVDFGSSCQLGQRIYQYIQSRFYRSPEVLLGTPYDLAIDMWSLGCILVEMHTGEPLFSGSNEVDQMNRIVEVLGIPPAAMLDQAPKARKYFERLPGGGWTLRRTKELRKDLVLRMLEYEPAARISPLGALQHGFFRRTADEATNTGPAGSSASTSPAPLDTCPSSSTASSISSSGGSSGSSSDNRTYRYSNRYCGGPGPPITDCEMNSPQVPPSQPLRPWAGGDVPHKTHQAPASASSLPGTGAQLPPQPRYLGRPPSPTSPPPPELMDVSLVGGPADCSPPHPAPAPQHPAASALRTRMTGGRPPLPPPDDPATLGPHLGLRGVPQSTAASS

COc1cc(N2CCN(C)CC2)ccc1Nc1nccc(-c2cn(C)c3cnccc23)n1 [AZ-191]
pIC50 [1]: 5.76 | pIC50 [2]: 7.01 | pIC50 (DYRK1A; read-out: published IC50 DYRK1A): 7.06 | pIC50 (DYRK1B): 7.77 | pIC50 (DYRK2): 5.72

O=C(O[C@@H]1Cc2c(O)cc(O)cc2O[C@H]1c1cc(O)c(O)c(O)c1)c1cc(O)c(O)c(O)c1F [Compound 1a]
pIC50 [1]: 6.59 | pIC50 ([2]; read-out: DYRK1A IC50): 7.46 | pIC50 [3]: 7.38

O=C(O[C@@H]1Cc2c(O)cc(O)cc2O[C@H]1c1cc(O)c(O)c(O)c1)c1c(F)c(O)c(O)c(O)c1F [Compound 1b]
pIC50 [1]: 6.74 | improvement in anti-DYRK1A activity compared to EGCG [2]: eightfold | pIC50 ([2]; read-out: DYRK1A IC50): 7.55 | pIC50 [3]: 7.35 | bioavailability (in words) [4]: much lower than that of 1c | Tlast ([4]; plasma): 24 h | AUC(0-inf) [4, 6]: 472 ng·h/mL | AUC(0-t) [4, 6]: 379 ng·h/mL | Cmax [4, 6]: 131 ng/mL | Tmax [4, 6]: 0.5 h | half-life [4, 6]: 12.7 h

COc1c(O)c(O)cc(C(=O)O[C@@H]2Cc3c(O)cc(O)cc3O[C@H]2c2cc(O)c(O)c(O)c2)c1F [Compound 1d]
pIC50 ([2]; read-out: DYRK1A IC50): 6.82

COc1c(O)c(O)c(F)c(C(=O)O[C@@H]2Cc3c(O)cc(O)cc3O[C@H]2c2cc(O)c(O)c(O)c2)c1F [Compound 1e]
pIC50 ([2]; read-out: DYRK1A IC50): 6.90

O=C(O[C@@H]1Cc2c(O)cc(O)cc2O[C@H]1c1cc(O)c(O)c(O)c1)c1cc(O)c(O)c(OC(F)F)c1 [Compound 1f]
pIC50 ([2]; read-out: DYRK1A IC50): 6.60

O=C(O[C@@H]1Cc2c(O)cc(O)cc2O[C@H]1c1cc(O)c(O)c(O)c1)c1cc(OC(F)F)c(O)c(O)c1F [Compound 1g]
pIC50 ([2]; read-out: DYRK1A IC50): 6.87

CC(C)Oc1c(O)c(O)c(F)c(C(=O)O[C@@H]2Cc3c(O)cc(O)cc3O[C@H]2c2cc(O)c(O)c(O)c2)c1F [Compound 1h]
pIC50 ([2]; read-out: DYRK1A IC50): 6.45

C[C@@H]1C[C@H]2[C@@H]3CCC4=CC(=O)C=C[C@]4(C)[C@@]3(F)[C@@H](O)C[C@]2(C)[C@@]1(O)C(=O)CO [Dexamethasone, reference compound]
efficacy in plasma [5]: high efficacy

O=C(O[C@@H]1Cc2c(O)cc(O)cc2O[C@@H]1c1cc(O)c(O)c(O)c1)c1cc(O)c(O)c(O)c1 [EGCG, epigallocatechin gallate, reference compound]
pIC50 [1]: 5.83 | pIC50 (DYRK1A; allosteric inhibitor, read-out: DYRK1A in vitro IC50): 6.40 to 6.52 | AUC(0-inf) [4, 6]: 395 ng·h/mL | AUC(0-t) [4, 6]: 360 ng·h/mL | Cmax [4, 6]: 55 ng/mL | half-life [4, 6]: 5.02 h | bioavailability ([4]; both sexes, C57BL/6, mouse, plasma, po, 100 mg/kg, plasma, read-out: F (absolute bioavailability)): 2%

O=C(O[C@@H]1Cc2c(O)cc(O)cc2O[C@H]1c1cc(O)c(O)c(O)c1)c1cc(O)c(O)c(O)c1 [GCG, reference compound]
pIC50 [1]: 6.24

COc1cc(C(=O)OC2Cc3c(O)cc(O)cc3OC2c2cc(O)c(O)c(O)c2)cc(O)c1O (stereo not shown) [GCG-3”OMe, reference compound]
pIC50 ([2]; read-out: DYRK1A IC50): 6.69
